Here are results for six compounds from patent publication US9376469B2, “Proteolytically resistant hydrogen bond surrogate helices” (New York University, priority 2011, dated 2016).

One data set deals with HeLa cells. The data set can be described thus: Cellular uptake assay, confocal microscopy of live cells. It counts as cell-based. The conditions noted are these: 15 μM fluorescein-tagged peptide, 2 hours, 37° C. Here is the method:
HeLa cells were cultured to sub-confluence in DMEM (Invitrogen) supplemented with 10% (v/v) fetal bovine serum (FBS) at 37° C. in a humidified incubator containing 5% CO2. Cells (˜1×10^4 cells/ml) in DMEM supplemented with 10% FBS were plated onto a 24-well culture plate containing microscope cover slides. After overnight incubation, cells were washed three times with 1 ml HBSS (Invitrogen) and supplemented with 15 μM fluorescein-tagged peptides in 1 mM PBS (pH 7.4) to a total volume of 500 μl. Peptide treated cells were incubated for another 2 hours at 37° C., washed five times with 500 μl HBSS, and imaged directly on a Leica TSC SP 2 laser scanning confocal microscope. Twenty serial 1 μm Z-section images through the middle of the cells were collected and analyzed.
It is likely that cellular uptake of HBS helices will have sequence dependence; however, it is noteworthy that peptides with an overall negative charge are internalized (Patgiri et al., Nat. Chem. Biol. 7:585 (2011), which is hereby incorporated by reference in its entirety), as positive charge is often associated with enhanced cellular uptake of peptides (Henchey et al., J. Am. Chem. Soc'y 132:941 (2010); Bernal et al., J. Am. Chem. Soc'y 129:2456 (2007); Wender et al., Proc. Nat'l Acad. Sci. USA 97:13003 (2000), each of which is hereby incorporated by reference in its entirety).

The target in data set [1] is T1, His6-tagged Mdm2 (25-117) (Homo sapiens, UniProt Q00987).
T1 construct: made in house; host or cells: E. coli BL21 DE3 pLySS, pET-14B vector
The data set can be described thus: Fluorescence polarization-based competitive binding assay with Flu-p53. The settings on record: for Binding to Mdm2, result in words: negative control peptides; for Kd: read-out: KD (binding constant for His6-Mdm2).

The next data set concerns serum proteases. Kind of data set: Serum stability assay. The settings on record: 25% human serum in RPMI, 37° C., after 24 hours, LCMS. It counts as in vitro ADME. As to the method:
Peptides and 50% human serum (Sigma, St Louis, Mo., USA; product number S7023) in RPMI were temperature-equilibrated to 37° C. for 15 minutes prior to the experiments. […] After 0, 2, 5, 10, and 24 hours, three samples of each peptide (50 μl) were taken, and were precipitated by the addition of 100 μl of 6% aqueous trichloroacetic acid. The samples were cooled to 4° C. for 20 minutes and centrifuged (14000 rpm for 5 minutes). The supernatants were immediately frozen on dry ice and 100 μl of each were analyzed on an Agilent LCMS using 0.1% formic acid in water (eluent A) and 0.1% formic acid in acetonitrile (eluent B). The level of intact peptide was determined by comparing the LC % area of the peptide peak at different time points to the % area of the O-hour peak.
Human serum contains a myriad of proteases and provides a gauge for the stability of compounds under physiological conditions.

Another data set has as its system trypsin. Kind of data set: Trypsin digestion assay. It counts as in vitro ADME. The settings on record: 1 ng/μL trypsin, 4° C. Here is the method:
A solution containing 500 μM of tryptophan, 1 ng/μL of trypsin, and 500 μM of peptide in PBS was incubated at 4° C. At the indicated time intervals, 100 μL of this solution was quenched with 100 μL of 2% aqueous TFA, and then injected into reversed-phase HPLC to analyze the change in the area of the peptide peak compared to the area of an internal control (tryptophan).
Trypsin was chosen as the model proteolytic enzyme because the p53 activation domain contains a lysine group near the C-terminus, providing a cleavage site for this enzyme. […] The rate of peptide digestion was measured using an LCMS assay with tryptophan as an internal control.

Square brackets hold non-standard residues; d marks the D form. Peptide text beside a SMILES is read from it. * marks the point of attachment. X1 = NC(=O)CC[C@@H]1NC(=O)CCC=CCN(CCC(=O)*)C(=O)[C@H](CCC(=O)O)NC1=O; β3hL = CC(C)C[C@H](N)CC(=O)O; β3hA = C[C@H](N)CC(=O)O

“XQeG*FSdLWKILSC^Flu-NH2 (SEQ ID NO: 11) [Flu-1]”: the “Cellular uptake (intracellular fluorescence)” value in the data set on HeLa cells is listed as “intense intracellular fluorescence”. Take `CC(C)C[C@@H](CC(=O)N[C@@H](Cc1c[nH]c2ccccc12)C(=O)N[C@@H](CCCCN)C(=O)N[C@@H](CC(C)C)C(=O)N[C@@H](C)CC(=O)N[C@@H](CO)C(N)=O)NC(=O)[C@H](CC(=O)O)NC(=O)[C@H](CO)NC(=O)[C@H](C)NC(=O)CCN1CC=CCCC(=O)N[C@@H](CCC(N)=O)C(=O)N[C@@H](CCC(=O)O)C1=O` [Peptide 4-9, XQEg*ASDIWKLaS-NH2 (SEQ ID NO: 16)] (X1-ASD[β3hL]WKL[β3hA]S-NH2): in data set [1], the “Binding to Mdm2, result in words” value is reported as “does not bind with any appreciable binding affinity” and the Kd is greater than 1000 µM. Turning to `CC(C)C[C@@H](CC(=O)N[C@@H](CC(C)C)C(=O)N[C@@H](CO)C(N)=O)NC(=O)[C@H](CCCCN)NC(=O)[C@H](Cc1c[nH]c2ccccc12)NC(=O)[C@H](CC(C)C)NC(=O)C[C@H](CC(=O)O)NC(=O)[C@H](CO)NC(=O)[C@H](Cc1ccccc1)NC(=O)CN1CC=CCCC(=O)N[C@@H](CCC(N)=O)C(=O)N[C@@H](CCC(=O)O)CC1=O` [Peptide 1, XQeG*FSdLWKILS-NH2 (SEQ ID NO: 5)], the “Stability in human serum, in words” value in the data set with serum proteases was “remained unperturbed”. The metabolised at 24 h, 500 μM in the data set on trypsin (trypsin (isolated protease) in PBS, after 24 hours, 500 μM peptide, read-out: Peptide cleaved by trypsin) is roughly 20%.

Consider `CC(=O)N[C@@H](CCC(N)=O)C(=O)N[C@H]1CCC[C@@H]1C(=O)NCC(=O)N[C@@H](Cc1ccccc1)C(=O)N[C@@H](CO)C(=O)N[C@H]1CCC[C@@H]1C(=O)N[C@@H](CC(C)C)C(=O)N[C@@H](Cc1c[nH]c2ccccc12)C(=O)N[C@@H](CCCCN)C(=O)N[C@H]1CCC[C@@H]1C(=O)N[C@@H](CC(C)C)C(=O)N[C@@H](CO)C(N)=O` [Peptide 4, Ac-Q(ACPC)GFS(ACPC)LWK(ACPC)LS-NH2 (SEQ ID NO: 8)], for which the Kd in data set [1] worked out at 0.43 ± 0.086 µM. Also, the “Affinity for Mdm2 as compared to peptide 1” value in data set [1] (relative to peptide 1) was “roughly five-fold lower affinity”. Turning to `CC(C)C[C@@H](CC(=O)N[C@@H](C)C(=O)N[C@@H](CO)C(N)=O)NC(=O)[C@H](CCCCN)NC(=O)[C@H](Cc1c[nH]c2ccccc12)NC(=O)[C@H](CC(C)C)NC(=O)C[C@H](CC(=O)O)NC(=O)[C@H](CO)NC(=O)[C@H](C)NC(=O)CN1CC=CCCC(=O)N[C@@H](CCC(N)=O)C(=O)N[C@@H](CCC(=O)O)CC1=O` [Peptide 5, XQeG*ASdLWKIAS-NH2 (SEQ ID NO: 9)], in data set [1], the “Binding to Mdm2, result in words” value is recorded as “does not bind to Mdm2 with measurable affinity” and the Kd was greater than 1000 µM. As to `CC(=O)N[C@@H](CCC(N)=O)C(=O)N[C@@H](CCC(=O)O)CC(=O)NCC(=O)N[C@@H](Cc1ccccc1)C(=O)N[C@@H](CO)C(=O)N[C@@H](CC(=O)O)CC(=O)N[C@@H](CC(C)C)C(=O)N[C@@H](Cc1c[nH]c2ccccc12)C(=O)N[C@@H](CCCCN)C(=O)N[C@H](CC(=O)N[C@@H](CC(C)C)C(=O)N[C@@H](CO)C(N)=O)CC(C)C` [Peptide 3, Ac-QeGFSdLWKILS-NH2 (SEQ ID NO: 7)], the “Stability toward trypsin degradation, in words” value with trypsin (PBS) is listed as “stable toward degradation”.
